This is an account of results in patent US20230174484A1, “ANTAGONISTS OF GPR39 PROTEIN” (Oregon Health & Science University, priority 2020, published 2023).

The assay has as its target T1, human GPR39 receptor (Homo sapiens, UniProt O43194).
T1 construct: PC3 Cells, Expressing the Endogenous Human GPR39 Receptor; endogenous in cells; host or cells: PC3 (human prostate adenocarcinoma) cells
T1 sequence (O43194 1-453): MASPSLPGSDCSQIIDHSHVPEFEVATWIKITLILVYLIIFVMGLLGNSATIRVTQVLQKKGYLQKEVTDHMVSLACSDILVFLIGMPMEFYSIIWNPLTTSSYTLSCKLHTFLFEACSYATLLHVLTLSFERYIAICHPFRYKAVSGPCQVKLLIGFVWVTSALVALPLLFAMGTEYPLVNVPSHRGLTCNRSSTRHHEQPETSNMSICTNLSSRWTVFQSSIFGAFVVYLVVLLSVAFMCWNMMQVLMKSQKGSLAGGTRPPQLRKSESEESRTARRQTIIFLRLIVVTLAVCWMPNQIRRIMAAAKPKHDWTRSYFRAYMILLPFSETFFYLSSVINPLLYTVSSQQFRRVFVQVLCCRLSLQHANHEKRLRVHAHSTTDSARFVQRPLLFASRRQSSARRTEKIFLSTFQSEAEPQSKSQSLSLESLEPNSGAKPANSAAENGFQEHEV
The assay is described as follows: Measurement of intracellular calcium response in PC3 cells (FLIPR), antagonism of the C3 agonist response. The class given is cell-based. The note with it: functional pKi (modified Cheng-Prusoff), inhibition of the C3 (TC-G 1008) response at EC90, 30 μM ZnCl2, read-out: fpKi activity. In outline:
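Potency was reported as fpKi, converted by modified Cheng-Prusoff from four-parameter IC50 fits against an EC90 C3 agonist challenge. Calcium-6 FLIPR readings used PC3 cells naturally expressing human GPR39, in pH 7.4 HEPES buffer containing 30 μM final ZnCl2. Score bands: +/± <5.2, + 5.2–5.9, ++ 6.0–6.5, +++ 6.6–7.2, ++++ ≥7.3.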
In general terms: A change in cytosolic calcium serves as a functional read-out for many receptors and channels.

`O=C(Nc1ccc(C(=O)N2CCS(=O)(=O)CC2)c(N2CCOC(C(F)(F)F)C2)c1)C1CC1` (racemic) [Example 186, N-[4-(1,1-dioxo-1,4-thiazinane-4-carbonyl)-3-[2-(trifluoromethyl)morpholinyl]phenyl]cyclopropanecarboxamide]: the Ki was in the range of 316 to 1000 nM.
As for `Cc1nnc(-c2ccc(C(=O)N3CCN(C)CC3c3ccccc3)c(N3CCCC3)c2)[nH]1` (single isomer, unassigned) [Example 150a, (2R or 2S) (4-methyl-2-phenylpiperazin-1-yl)-[4-(5-methyl-4H-1,2,4-triazol-3-yl)-2-pyrrolidin-1-ylphenyl]methanone], the figure is 63.1 to 251 nM; as for `CC1CCN(c2cc(NC(=O)C3CC3)ccc2C(=O)N2CCN(C)CC2c2ccccc2)C1` (single isomer, unassigned) [Example 64a, (2S, 3R) or (2R, 3S) or (2R, 3R) or (2S, 3S) N-[4-(4-methyl-2-phenylpiperazine-1-carbonyl)-3-(3-methylpyrrolidin-1-yl)phenyl] cyclopropanecarboxamide], no more than 50.1 nM; as for `O=C(Nc1ccc(C(=O)N2CCN(c3cccnc3)CC2)c(N2CCCCCC2)c1)C1CC1` [Example 51, N-(3-(azepan-1-yl)-4-(4-(pyridin-3-yl)piperazine-1-carbonyl)phenyl) Cyclopropanecarboxamide], 63.1 to 251 nM.
Regarding `CCCN1CCn2c(cnc2-c2ccc(NC(=O)C3CC3)cc2N2CCCCCC2)C1` [Example 105, N-[3-(azepan-1-yl)-4-(7-propyl-6,8-dihydro-5H-imidazo[1,5-a]pyrazin-3-yl)phenyl]cyclopropanecarboxamide], the Ki was in the range of 63.1 to 251 nM.
As for `CN1CCN(C(=O)c2ccc(NC(=O)C3CC3)cc2N2CCCC2)C(c2ccccc2Cl)C1` (single isomer, unassigned) [Example 170a, (2R or 2S) N-[4-[2-(2-chlorophenyl)-4-methylpiperazine-1-carbonyl]-3-pyrrolidin-1-ylphenyl] cyclopropanecarboxamide], the figure is no more than 50.1 nM; as for `CN1CCN(C(=O)c2ccc(NC(=O)C3CC3)cc2N2CC3(COC3)C2)C(c2ccccc2)C1` (stereo not drawn) [Example 204, N-[4-(4-methyl-2-phenylpiperazine-1-carbonyl)-3-(2-oxa-6-azaspiro[3.3]heptan-6-yl)phenyl]cyclopropanecarboxamide], 316 to 1000 nM.
As for `Cc1ccn(-c2cc(NC(=O)C3CC3)ccc2C(=O)N2CCN(C)CC2c2ccccc2)n1` (single isomer, unassigned) [Example 155a, (2R or 2S) N-[4-(4-methyl-2-phenylpiperazine-1-carbonyl)-3-(3-methylpyrazol-1-yl)phenyl] cyclopropanecarboxamide], the Ki was in the range of 316 to 1000 nM.
The value for `CCCN1CCN(C(=O)c2ccc(NC(=O)C3CC3)cc2N2CCCCCC2)C(c2ccccc2)C1` (racemic) [Example 73c, N-[3-(azepan-1-yl)-4-(2-phenyl-4-propylpiperazine-1-carbonyl)phenyl]Cyclopropanecarboxamide] was no more than 50.1 nM; that for `CN1CCN(C(=O)c2ccc(NC(=O)C3CC3)cc2N2CCC(C(F)(F)F)C2)C(c2ccccc2)C1` (single isomer, unassigned) [Example 199b, (2S, 3R) or (2R, 3S) or (2R, 3R) or (2S, 3S) N-[4-(4-methyl-2-phenylpiperazine-1-carbonyl)-3-[3-(trifluoromethyl)pyrrolidin-1-yl]phenyl]cyclopropanecarboxamide] was 316 to 1000 nM.
As for `O=C(Nc1ccc(C(=O)N2CCN(C3CCCC3)CC2)c(N2CCCCCC2)c1)C1CC1` [Example 53, N-[3-(azepan-1-yl)-4-(4-cyclopentylpiperazine-1-carbonyl)phenyl]cyclopropanecarboxamide], the figure is 316 to 1000 nM.
The value for `Cc1nnc(-c2ccc(C(=O)N3CCC(C(F)(F)F)CC3)c(N3CCCC3)c2)[nH]1` [Example 153, [4-(5-methyl-4H-1,2,4-triazol-3-yl)-2-pyrrolidin-1-ylphenyl]-[4-(trifluoromethyl)piperidin-1-yl]methanone] was 63.1 to 251 nM.
